pIC50: −log10 of the molar value. One block for each compound: values may come before it.
Columns and labels:
[1] = target: IL-17A(FLAG-Tagged): IL-17RA(His-Tagged) (Homo sapiens, UniProt Q16552, K93Q); assay: IL-17A(FLAG-Tagged): IL-17RA(His-Tagged) Binding Disruption Eu-HTRF Assay; conditions: IL-17A/IL-17RA binding disruption, simple average if tested more than once
Summary of the method: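 IC50 comes from a one-site competition fit of the HTRF 665/620 nm ratio. Compound dilutions (2-fold, 22 points) were held 1 h rt with FLAG-tagged IL-17A dimer, then His-tagged IL-17RA plus Eu-cryptate anti-FLAG and D2 anti-His antibodies were added for 2 h rt.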

[2] = tested on: IL-17A-induced G-CSF production in human normal keratinocyte (NHK); assay: NHK Assay: IL-17A-induced G-CSF production in human normal keratinocytes; assay type: cell-based; conditions: 24 h, adult normal human keratinocytes, IL-17A 5 ng/mL, simple average if tested more than once
Summary of the method: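 Compound is first combined with recombinant human IL-17A for 1 h at rt, and the mix is added to adult normal human keratinocytes so that IL-17A is 5 ng/mL. After 24 h at 37° C in 5% FBS, G-CSF released into the medium is read by HTRF and IC50 derived.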

UniProt Q16552, sequence (Q16552 with tags, fused parts or gaps K93Q): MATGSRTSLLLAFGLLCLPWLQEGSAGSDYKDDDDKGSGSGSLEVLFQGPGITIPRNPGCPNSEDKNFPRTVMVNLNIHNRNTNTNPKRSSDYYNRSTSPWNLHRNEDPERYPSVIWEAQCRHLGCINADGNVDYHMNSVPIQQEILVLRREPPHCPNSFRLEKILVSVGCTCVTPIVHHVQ

SMILES: O=C(CCC(F)(F)F)N[C@@H](c1cnn2cc([C@@H](NC(=O)c3conc3C(F)(F)F)C3CCC(F)(F)CC3)nc2c1)C1CC1 [Example 101, N—[(S)-[7-[(R)-Cyclopropyl-(4,4,4-trifluorobutanoylamino)methyl]imidazo[1,2-b]pyridazin-2-yl]-(4,4-difluorocyclohexyl)methyl]-3-(trifluoromethyl)isoxazole-4-carboxamide]
pIC50 [1]: 7.41
pIC50 ([2]; Homo sapiens, Keratinocyte): 6.80

SMILES: CC(C)n1nccc1C(=O)N[C@H](c1cn2ncc([C@H](NC(=O)CC(C)(F)F)C3CC3)cc2n1)C1CCC(F)(F)CC1 [Example 261, N—((S)-(7-((R)-Cyclopropyl(3,3-difluorobutanamido)methyl)imidazo[1,2-b]pyridazin-2-yl)(4,4-difluorocyclohexyl)methyl)-1-isopropyl-1H-pyrazole-5-carboxamide]
pIC50 [1]: 6.89
pIC50 ([2]; Homo sapiens, Keratinocyte): 6.37

SMILES: Cc1conc1C(=O)N[C@H](c1cn2ncc([C@H](NC(=O)CCC(F)(F)F)C3CC3)cc2n1)C1CCC(F)(F)CC1 [Example 158, N—((S)-(7-((R)-Cyclopropyl(4,4,4-trifluorobutanamido)methyl)imidazo[1,2-b]pyridazin-2-yl)(4,4-difluorocyclohexyl)methyl)-4-methylisoxazole-3-carboxamide]
pIC50 [1]: 7.32
pIC50 ([2]; Homo sapiens, Keratinocyte): 6.68

SMILES: CC(C)n1nccc1C(=O)N[C@H](c1cn2ncc([C@@H](NC(=O)C[C@@H]3CC3(F)F)C3CC3)cc2n1)C1CCC(F)(F)CC1 (single isomer, unassigned) [Example 139]
pIC50 [1]: 6.14
pIC50 ([2]; Homo sapiens, Keratinocyte): 6.16

SMILES: CC(C)c1nonc1C(=O)N[C@H](c1cn2ncc(C(NC(=O)CCC(F)(F)F)C(C)C)cc2n1)C1CCC(F)(F)CC1 (single isomer, unassigned) [Example 511, N—((S)-(4,4-Difluorocyclohexyl)(7-((S*)-2-methyl-1-(4,4,4-trifluorobutanamido)propyl)imidazo[1,2-b]pyridazin-2-yl)methyl)-4-isopropyl-1,2,5-oxadiazole-3-carboxamide]
pIC50 [1]: 7.34
pIC50 ([2]; Homo sapiens, Keratinocyte): 7.68

SMILES: Cc1c(C(=O)N[C@H](c2cn3ncc(C(NC(=O)CC4CC(F)(F)C4)C4CC4)cc3n2)C2CCC(F)(F)CC2)cnn1CCC(F)(F)F (single isomer, unassigned) [Example 52, N—((S)-(7-((R*)-Cyclopropyl(2-(3,3-difluorocyclobutyl)acetamido)methyl)imidazo[1,2-b]pyridazin-2-yl)(4,4-difluorocyclohexyl)methyl)-5-methyl-1-(3,3,3-trifluoropropyl)-1H-pyrazole-4-carboxamide]
pIC50 [1]: 6.55
pIC50 [2]: 6.17

SMILES: [2H]C([2H])([2H])C([2H])([2H])n1nccc1C(=O)N[C@H](c1cn2ncc(C(NC(=O)CC3CC(F)(F)C3)C3CCC3)cc2n1)C1CCC(F)(F)CC1 (single isomer, unassigned) [Example 496, N—((S)-(7-((S*)-Cyclobutyl(2-(3,3-difluorocyclobutyl)acetamido)methyl)imidazo[1,2-b]pyridazin-2-yl)(4,4-difluorocyclohexyl)methyl)-1-(ethyl-d5)-1H-pyrazole-5-carboxamide]
pIC50 [1]: 6.16
pIC50 [2]: 5.00

SMILES: CC1(C(=O)N[C@H](c2cn3ncc([C@H](NC(=O)CCC(F)(F)F)C4CC4)cc3n2)C2CCC(F)(F)CC2)CC1(F)F (stereo partly drawn) [Example 148, N—((S)-(7-((R)-Cyclopropyl(4,4,4-trifluorobutanamido)methyl)imidazo[1,2-b]pyridazin-2-yl)(4,4-difluorocyclohexyl)methyl)-2,2-difluoro-1-methylcyclopropane-1-carboxamide]
pIC50 [1]: 6.03
pIC50 ([2]; Homo sapiens, Keratinocyte): 5.77

SMILES: Cc1nonc1C(=O)N[C@H](c1cn2ncc([C@H](NC(=O)CC3CC3(F)F)C3CC3)cc2n1)C1CCC(F)(F)CC1 (relative stereo) [Example 256]
pIC50 [1]: 7.25
pIC50 ([2]; Homo sapiens, Keratinocyte): 6.60

SMILES: O=C(CCC(F)(F)F)N[C@@H](c1cnn2cc([C@@H](NC(=O)c3cc(C(F)(F)F)ncn3)C3CCC(F)(F)CC3)nc2c1)C1CC1 [Example 202, N—((S)-(7-((R)-Cyclopropyl(4,4,4-trifluorobutanamido)methyl)imidazo[1,2-b]pyridazin-2-yl)(4,4-difluorocyclohexyl)methyl)-6-(trifluoromethyl)pyrimidine-4-carboxamide]
pIC50 [1]: 6.36
pIC50 ([2]; Homo sapiens, Keratinocyte): 5.64

SMILES: O=C(CCC(F)(F)F)N[C@@H](c1cnn2cc([C@@H](NC(=O)c3cnn(CCCF)n3)C3CCC(F)(F)CC3)nc2c1)C1CC1 [Example 113, N—((S)-(7-((R)-Cyclopropyl(4,4,4-trifluorobutanamido)methyl)imidazo[1,2-b]pyridazin-2-yl)(4,4-difluorocyclohexyl)methyl)-2-(3-fluoropropyl)-2H-1,2,3-triazole-4-carboxamide]
pIC50 [1]: 6.37
pIC50 ([2]; Homo sapiens, Keratinocyte): 6.40

SMILES: CCn1nccc1C(=O)N[C@H](c1cn2ncc([C@H](NC(=O)CC3CC(F)(F)C3)C3CC3)cc2n1)C1CCC(F)(F)CC1 [Example 126, N—((S)-(7-((R)-Cyclopropyl(2-(3,3-difluorocyclobutyl)acetamido)methyl)imidazo[1,2-b]pyridazin-2-yl)(4,4-difluorocyclohexyl)methyl)-1-ethyl-1H-pyrazole-5-carboxamide]
pIC50 [1]: 7.34
pIC50 ([2]; Homo sapiens, Keratinocyte): 7.08

SMILES: Cc1nonc1C(=O)N[C@H](c1cn2ncc([C@H](NC(=O)C(C)CC(F)F)C3CC3)cc2n1)C1CCC(F)(F)CC1 (single isomer, unassigned) [Example 330, N—((S)-(7-((R)-Cyclopropyl((R*)-4,4-difluoro-2-methylbutanamido)methyl)imidazo[1,2-b]pyridazin-2-yl)(4,4-difluorocyclohexyl)methyl)-4-methyl-1,2,5-oxadiazole-3-carboxamide]
pIC50 [1]: 6.25
pIC50 [2]: 5.66

Now from value to compound, other results behind:

pIC50 [1]: 5.43
SMILES: Cc1nonc1C(=O)N[C@H](c1cn2ncc(C(NC(=O)CC3(C(F)(F)F)CC3)C3(C#N)CC3)cc2n1)C1CCC(F)(F)CC1 (single isomer, unassigned) [Example 432, N—((S)-(7-((R*)-(1-Cyanocyclopropyl)(2-(1-(trifluoromethyl)cyclopropyl)acetamido)methyl)imidazo[1,2-b]pyridazin-2-yl)(4,4-difluorocyclohexyl)methyl)-4-methyl-1,2,5-oxadiazole-3-carboxamide]
pIC50 [2]: < 4.70

pIC50 [1]: 7.24
SMILES: O=C(CCC(F)(F)F)N[C@@H](c1cnn2cc([C@@H](NC(=O)c3cccc(C4CC4)c3)C3CCC(F)(F)CC3)nc2c1)C1CC1 [Example 166, 3-Cyclopropyl-N—((S)-(7-((R)-cyclopropyl(4,4,4-trifluorobutanamido)methyl)imidazo[1,2-b]pyridazin-2-yl)(4,4-difluorocyclohexyl)methyl)benzamide]
pIC50 ([2]; Homo sapiens, Keratinocyte): 6.89

pIC50 [1]: 6.92
SMILES: COCc1nocc1C(=O)N[C@H](c1cn2ncc([C@H](NC(=O)CCC(F)(F)F)C3CC3)cc2n1)C1CCC(F)(F)CC1 [Example 102, N—[(S)-[7-[(R)-Cyclopropyl-(4,4,4-trifluorobutanoylamino)methyl]imidazo[1,2-b]pyridazin-2-yl]-(4,4-difluorocyclohexyl)methyl]-3-(methoxymethyl)isoxazole-4-carboxamide]
pIC50 ([2]; Homo sapiens, Keratinocyte): 6.57

pIC50 [1]: 5.11
SMILES: O=C(CCC(F)(F)F)N[C@@H](c1cnn2cc([C@@H](NC(=O)c3cccnn3)C3CCC(F)(F)CC3)nc2c1)C1CC1 [Example 458, N—((S)-(7-((R)-Cyclopropyl(4,4,4-trifluorobutanamido)methyl)imidazo[1,2-b]pyridazin-2-yl)(4,4-difluorocyclohexyl)methyl)pyridazine-3-carboxamide]
pIC50 ([2]; Homo sapiens, Keratinocyte): < 4.70

pIC50 [1]: 7.39
SMILES: O=C(CCC(F)(F)F)N[C@@H](c1cnn2cc([C@@H](NC(=O)c3conc3C3CCC3)C3CCC(F)(F)CC3)nc2c1)C1CC1 [Example 474, 3-Cyclobutyl-N—((S)-(7-((R)-cyclopropyl(4,4,4-trifluorobutanamido)methyl)imidazo[1,2-b]pyridazin-2-yl)(4,4-difluorocyclohexyl)methyl)isoxazole-4-carboxamide]
pIC50 ([2]; Homo sapiens, Keratinocyte): 6.89

pIC50 [1]: 7.15
SMILES: CC(C)n1nccc1C(=O)N[C@H](c1cn2ncc([C@H](NC(=O)C[C@H]3CC3(F)F)C3CC3)cc2n1)C1CCC(F)(F)CC1 (single isomer, unassigned) [Example 140]
pIC50 ([2]; Homo sapiens, Keratinocyte): 7.05

pIC50 [1]: 5.89
SMILES: O=C(CCC(F)(F)F)N[C@@H](c1cnn2cc([C@@H](NC(=O)[C@@H]3C[C@H]3C(F)(F)F)C3CCC(F)(F)CC3)nc2c1)C1CC1 (relative stereo) [Example 150, (Trans-1R*, 2R*)—N—((S)-(7-((R)-Cyclopropyl(4,4,4-trifluorobutanamido)methyl)imidazo[1,2-b]pyridazin-2-yl)(4,4-difluorocyclohexyl)methyl)-2-(trifluoromethyl)cyclopropane-1-carboxamide]
pIC50 ([2]; Homo sapiens, Keratinocyte): < 4.70

pIC50 [1]: 7.30
SMILES: CC(O)c1nonc1C(=O)N[C@H](c1cn2ncc([C@H](NC(=O)CC3CC(F)(F)C3)C3CC3)cc2n1)C1CCC(F)(F)CC1 (single isomer, unassigned) [Example 396, N—((S)-(7-((R)-Cyclopropyl(2-(3,3-difluorocyclobutyl)acetamido)methyl)imidazo[1,2-b]pyridazin-2-yl)(4,4-difluorocyclohexyl)methyl)-4-((S*)-1-hydroxyethyl)-1,2,5-oxadiazole-3-carboxamide]
pIC50 [2]: 6.72

pIC50 [1]: 6.85
SMILES: CC(C)c1scnc1C(=O)N[C@H](c1cn2ncc([C@H](NC(=O)CCC(F)(F)F)C3CC3)cc2n1)C1CCC(F)(F)CC1 [Example 480, N—((S)-(7-((R)-Cyclopropyl(4,4,4-trifluorobutanamido)methyl)imidazo[1,2-b]pyridazin-2-yl)(4,4-difluorocyclohexyl)methyl)-5-isopropylthiazole-4-carboxamide]
pIC50 ([2]; Homo sapiens, Keratinocyte): 6.33
